In test [1] the target is T1, recombinant human α1D receptor (Homo sapiens, UniProt P25100).
T1 construct: expressed in transfected cells; host or cells: HEK293
T1 sequence (P25100 1-572): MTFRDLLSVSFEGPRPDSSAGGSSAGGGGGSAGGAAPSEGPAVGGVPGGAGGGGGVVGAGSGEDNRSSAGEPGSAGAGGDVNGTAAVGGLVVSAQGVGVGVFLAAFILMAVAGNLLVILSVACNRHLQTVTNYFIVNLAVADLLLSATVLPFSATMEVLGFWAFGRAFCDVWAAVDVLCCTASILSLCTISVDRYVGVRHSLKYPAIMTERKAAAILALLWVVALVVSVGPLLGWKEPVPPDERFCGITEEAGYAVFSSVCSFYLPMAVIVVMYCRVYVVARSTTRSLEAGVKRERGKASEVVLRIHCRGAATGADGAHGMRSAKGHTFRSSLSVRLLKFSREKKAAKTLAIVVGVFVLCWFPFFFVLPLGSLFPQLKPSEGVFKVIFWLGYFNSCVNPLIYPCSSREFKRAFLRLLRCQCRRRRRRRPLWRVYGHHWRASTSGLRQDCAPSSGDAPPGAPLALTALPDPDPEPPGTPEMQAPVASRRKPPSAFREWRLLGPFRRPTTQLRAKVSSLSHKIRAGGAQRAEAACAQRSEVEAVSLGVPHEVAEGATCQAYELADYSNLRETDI
As to the kind of experiment: Adrenergic α1D selectivity binding assay ([3H]-prazosin). The settings on record: inhibition of [3H]-prazosin (0.3 nM) binding, HEK293 membranes; for IC50: read-out: α1 bind pIC50 (converted). The method in brief: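 Displacement of [3H]-prazosin (0.3 nM) from recombinant human α1D receptor in HEK293-cell membranes, 2 h at room temperature, pH 7.4 HEPES/EDTA/gelatin buffer. Filtration and scintillation counting, non-specific binding set with 10 μM BMY7378; four-parameter logistic fit gives pIC50.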

For test [2], the target named is T2, recombinant human adrenergic beta 1 receptors (Homo sapiens, UniProt P08588).
T2 construct: purchased Euroscreen
T2 sequence (P08588 whole entry): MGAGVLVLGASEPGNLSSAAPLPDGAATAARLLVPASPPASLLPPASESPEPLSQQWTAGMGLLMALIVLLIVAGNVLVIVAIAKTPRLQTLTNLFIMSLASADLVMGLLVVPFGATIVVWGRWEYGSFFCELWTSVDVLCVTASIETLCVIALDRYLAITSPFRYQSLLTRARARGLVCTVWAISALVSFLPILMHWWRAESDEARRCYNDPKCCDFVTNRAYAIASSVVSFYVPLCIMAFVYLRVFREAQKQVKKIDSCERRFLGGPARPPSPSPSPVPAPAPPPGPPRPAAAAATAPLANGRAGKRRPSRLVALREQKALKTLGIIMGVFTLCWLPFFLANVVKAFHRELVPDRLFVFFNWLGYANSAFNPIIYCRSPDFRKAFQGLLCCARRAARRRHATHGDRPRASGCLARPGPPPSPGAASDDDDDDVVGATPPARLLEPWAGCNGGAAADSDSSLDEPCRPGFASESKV
In words: Adrenergic β1 selectivity binding assay ([125I]-Iodocyanopindolol). The settings on record: inhibition of [125I]-Iodocyanopindolol (0.036 nM) binding; read-out: β1 bind p IC50 (converted). The protocol: Membranes containing recombinant human adrenergic beta 1 receptors were obtained from Euroscreen. These were diluted in Assay Buffer (50 mM HEPES, 1 mM EDTA, 120 mM NaCl, 0.1% gelatin, pH 7.4) to provide a final concentration of membranes that gave a clear window between maximum and minimum specific binding.
Assays were performed in U-bottomed 96-well polypropylene plates. 10 μL [^125I]-Iodocyanopindolol (0.036 nM final concentration) and 10 μL of test compound (10× final concentration) were added to each test well. For each assay plate 8 replicates were obtained for [^125I]-Iodocyanopindolol binding in the presence of 10 μL vehicle (10% (v/v) DMSO in Assay Buffer; defining maximum binding) or 10 μL Propranolol (10 μM final concentration; defining non-specific binding (NSB)). Membranes were then added to achieve a final volume of 100 μL. The plates were incubated for 2 hours at room temperature and then filtered onto PEI coated GF/B filter plates, pre-soaked for 1 hour in Assay Buffer, using a 96-well plate Tomtec cell harvester. Five washes with 250 μL wash buffer (50 mM HEPES, 1 mM EDTA, 120 mM NaCl, pH 7.4) were performed at 4° C. to remove unbound radioactivity. The plates were dried then sealed from underneath using Packard plate sealers and MicroScint-O (50 μL) was added to each well. The plates were sealed (TopSeal A) and filter-bound radioactivity was measured with a scintillation counter (TopCount, Packard BioScience) using a 3-minute counting protocol.
Total specific binding (B0) was determined by subtracting the mean NSB from the mean maximum binding. NSB values were also subtracted from values from all other wells. […] Data was fitted to a four parameter logistic equation to determine the compound potency, which was expressed as pIC50 (negative log molar concentration inducing 50% inhibition of [^125I]-Iodocyanopindolol binding).

Test [3] has as its target T3, recombinant human Dopamine Subtype D2s receptors (Homo sapiens, UniProt P14416).
T3 construct: purchased Perkin Elmer
As to the kind of experiment: Dopamine D2 selectivity binding assay ([3H]-spiperone). The following applies: inhibition of [3H]-spiperone (0.16 nM) binding; read-out: D2 bind pIC50 (converted). Put shortly: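 Displacement of [3H]-spiperone (0.16 nM final) from human D2s receptor membranes in pH 7.4 HEPES buffer over 2 h at room temperature, then filtration and scintillation counting. Specific binding taken as vehicle minus 10 μM haloperidol wells. Potency given as pIC50 from a four-parameter logistic curve.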

Each structure is given as a SMILES string. Counter-ions that a name gives are not always drawn.

15 compounds from patent US20100022491A1, “4-HYDROXY-2-OXO-2,3-DIHYDRO-1,3-BENZOTHIAZOL-7YL COMPOUNDS FOR MODULATION OF B2-ADRENORECEPTOR ACTIVITY” (ASTRAZENECA AB, priority 2006, published 2010) can be followed below.

T3 sequence (P14416 1-414 isoform P14416-2): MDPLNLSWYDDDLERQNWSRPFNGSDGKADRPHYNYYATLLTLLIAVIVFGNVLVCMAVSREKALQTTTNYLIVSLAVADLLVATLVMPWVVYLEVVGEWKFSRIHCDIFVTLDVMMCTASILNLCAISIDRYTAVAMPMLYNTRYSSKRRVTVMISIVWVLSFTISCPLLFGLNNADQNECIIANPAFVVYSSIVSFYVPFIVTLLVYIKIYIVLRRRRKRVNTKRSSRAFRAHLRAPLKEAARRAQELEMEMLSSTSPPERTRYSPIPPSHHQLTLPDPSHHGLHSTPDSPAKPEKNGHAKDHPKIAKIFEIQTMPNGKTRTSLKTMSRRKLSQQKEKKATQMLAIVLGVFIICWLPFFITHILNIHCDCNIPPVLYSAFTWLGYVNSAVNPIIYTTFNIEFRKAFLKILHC

For `O=C(CCNCCc1ccc(F)cc1)N(CCNCCc1ccc(O)c2[nH]c(=O)sc12)C1CCCCC1` [Example 16, N-Cyclohexyl-N^3-[2-(4-fluorophenyl)ethyl]-N-(2-{[2-(4-hydroxy-2-oxo-2,3-dihydro-1,3-benzothiazol-7-yl)ethyl]amino}ethyl)-β-alaninamide bis-trifluoroacetic acid salt], the IC50 was 100 nM in test [1], 7.94 µM in test [2] and 631 nM in test [3].

For `O=C(CCNCCc1ccccc1Cl)N(CCNCCc1ccc(O)c2[nH]c(=O)sc12)C1CCCCC1` [Example 17, N^3-[2-(2-Chlorophenyl)ethyl]-N-cyclohexyl-N-(2-{[2-(4-hydroxy-2-oxo-2,3-dihydro-1,3-benzothiazol-7-yl)ethyl]amino}ethyl)-β-alaninamide bis-trifluoroacetic salt], the IC50 is 50.1 nM in test [1], 3.16 µM in test [2] and 158 nM in test [3].

For the compound `O=C(CCNCCc1cccc(Cl)c1)N(CCNCCc1ccc(O)c2[nH]c(=O)sc12)C1CCOCC1` [Example 22, N^3-[2-(3-Chlorophenyl)ethyl]-N-(2-{[2-(4-hydroxy-2-oxo-2,3-dihydro-1,3-benzothiazol-7-yl)ethyl]amino}ethyl)-N-(tetrahydro-2H-pyran-4-yl)-β-alaninamide bis-trifluoroacetic acid salt], the IC50 was 251 nM in test [1], 3.98 µM in test [2] and 7940 nM in test [3].

For the compound `O=C(CCNCCc1ccccc1)N(CCNCCc1ccc(O)c2[nH]c(=O)sc12)C1CCCCCC1` [Example 23, N-Cycloheptyl-N-(2-{[2-(4-hydroxy-2-oxo-2,3-dihydro-1,3-benzothiazol-7-yl)ethyl]amino}ethyl)-N^3-(2-phenylethyl)-β-alaninamide bis-trifluoroacetic acid salt], in test [1], the “α1 bind pIC50” value is 7.2. The results for the IC50 in test [2] and in test [3] were 3.98 µM and 251 nM, respectively.

As to `O=C(CCNCCc1ccc(Cl)c(Cl)c1)N(CCNCCc1ccc(O)c2[nH]c(=O)sc12)C1CCOCC1` [Example 24, N^3-[2-(3,4-Dichlorophenyl)ethyl]-N-(2-{[2-(4-hydroxy-2-oxo-2,3-dihydro-1,3-benzothiazol-7-yl)ethyl]amino}ethyl)-N-(tetrahydro-2H-pyran-4-yl)-β-alaninamide bis-trifluoroacetic acid salt], the IC50 in test [1] is 631 nM; in test [2] it was 2 µM; in test [3], 794 nM.

Regarding `Cc1cccc(CCNCCC(=O)N(CCNCCc2ccc(O)c3[nH]c(=O)sc23)C2CCOCC2)c1` [Example 25, N-(2-{[2-(4-Hydroxy-2-oxo-2,3-dihydro-1,3-benzothiazol-7-yl)ethyl]amino}ethyl)-N^3-[2-(3-methylphenyl)ethyl]-N-(tetrahydro-2H-pyran-4-yl)-β-alaninamide bis-trifluoroacetic acid salt], the figures for the IC50 in test [1], in test [2] and in test [3] were 251 nM, 5.01 µM and 2510 nM, respectively.

With `O=C(CCNCCc1ccc(Cl)cc1)N(CCNCCc1ccc(O)c2[nH]c(=O)sc12)C1CCOCC1` [Example 26, N^3-[2-(4-Chlorophenyl)ethyl]-N-(2-{[2-(4-hydroxy-2-oxo-2,3-dihydro-1,3-benzothiazol-7-yl)ethyl]amino}ethyl)-N-(tetrahydro-2H-pyran-4-yl)-β-alaninamide bis-trifluoroacetic acid salt], the IC50 was 501 nM in test [1], 5.01 µM in test [2] and 1000 nM in test [3].

For `Cc1ccccc1CCNCCC(=O)N(CCNCCc1ccc(O)c2[nH]c(=O)sc12)C1CCOCC1` [Example 27, N-(2-{[2-(4-Hydroxy-2-oxo-2,3-dihydro-1,3-benzothiazol-7-yl)ethyl]amino}ethyl)-N^3-[2-(2-methylphenyl)ethyl]-N-(tetrahydro-2H-pyran-4-yl)-β-alaninamide bis-trifluoroacetic acid salt], the IC50 in test [1] is 251 nM; in test [2] it was 5.01 µM; in test [3], 3160 nM.

Regarding `O=C(CCNCCc1ccc(Cl)cc1)N(CCNCCc1ccc(O)c2[nH]c(=O)sc12)C1CCCC1` [Example 28, N^3-[2-(4-Chlorophenyl)ethyl]-N-cyclopentyl-N-(2-{[2-(4-hydroxy-2-oxo-2,3-dihydro-1,3-benzothiazol-7-yl)ethyl]amino}ethyl)-β-alaninamide bis-trifluoroacetic acid salt], the IC50 in test [1] is 316 nM; in test [2], 6.31 µM; in test [3] it was 398 nM.

In the case of `O=C(CCNCCc1ccccc1Cl)N(CCNCCc1ccc(O)c2[nH]c(=O)sc12)C1CCCC1` [Example 29, N^3-[2-(2-Chlorophenyl)ethyl]-N-cyclopentyl-N-(2-{[2-(4-hydroxy-2-oxo-2,3-dihydro-1,3-benzothiazol-7-yl)ethyl]amino}ethyl)-β-alaninamide bis-trifluoroacetic acid salt], the results for the IC50 in test [1], in test [2] and in test [3] were 100 nM, 3.16 µM and 251 nM, respectively.

For `O=C(CCNCCc1cccc(Cl)c1)N(CCNCCc1ccc(O)c2[nH]c(=O)sc12)C1CCCC1` [Example 30, N^3-[2-(3-Chlorophenyl)ethyl]-N-cyclopentyl-N-(2-{[2-(4-hydroxy-2-oxo-2,3-dihydro-1,3-benzothiazol-7-yl)ethyl]amino}ethyl)-β-alaninamide bis-trifluoroacetic acid salt], the IC50 is 200 nM in test [1], 3.16 µM in test [2] and 316 nM in test [3].

On to `C[C@H](CNCCC(=O)N(CCNCCc1ccc(O)c2[nH]c(=O)sc12)C1CCCC1)c1ccccc1` [Example 31, N-cyclopentyl-N-(2-{[2-(4-hydroxy-2-oxo-2,3-dihydro-1,3-benzothiazol-7-yl)ethyl]amino}ethyl)-N^3-[(2S)-2-phenylpropyl]-β-alaninamide bis-trifluoroacetic acid salt], for which the IC50 was 200 nM in test [1], 6.31 µM in test [2] and 251 nM in test [3].

For `CC(C)(CNCCC(=O)N(CCNCCc1ccc(O)c2[nH]c(=O)sc12)C1CCCC1)c1ccccc1` [Example 32, N-cyclopentyl-N-(2-{[2-(4-hydroxy-2-oxo-2,3-dihydro-1,3-benzothiazol-7-yl)ethyl]amino}ethyl)-N^3-(2-methyl-2-phenylpropyl)-β-alaninamide bis-trifluoroacetic acid salt], the IC50 in test [1] was 398 nM; in test [2] it was 7.94 µM; in test [3] it was 398 nM.

Turning to `O=C(CCNCCc1ccc(O)cc1)N(CCNCCc1ccc(O)c2[nH]c(=O)sc12)C1CCCCC1` [Example 34, N-Cyclohexyl-N-(2-{[2-(4-hydroxy-2-oxo-2,3-dihydro-1,3-benzothiazol-7-yl)ethyl]amino}ethyl)-N^3-[2-(4-hydroxyphenyl)ethyl]-β-alaninamide bis-trifluoroacetic acid salt], the values for the IC50 in test [1], in test [2] and in test [3] were 200 nM, 7.94 µM and 398 nM, respectively.

Consider `O=C(CCNCCc1cccs1)N(CCNCCc1ccc(O)c2[nH]c(=O)sc12)C1CCCCC1` [Example 35, N-Cyclohexyl-N-(2-{[2-(4-hydroxy-2-oxo-2,3-dihydro-1,3-benzothiazol-7-yl)ethyl]amino}ethyl)-N^3-[2-(2-thienyl)ethyl]-β-alaninamide bis-trifluoroacetic acid salt], for which the IC50 in test [1] was 158 nM; in test [2], 3.98 µM; in test [3], 316 nM.
